Values after ≈ are worked out from the molar mass of the structure shown. Where two headings read alike, the source gives them in different places.
System: Streptococcus mutans ATCC 25175
Test: MIC test for Streptococcus mutans (NCCLS)
Assay type: cell-based
Source text: Generally there are minimum inhibitory concentration (hereinafter, referred to MIC) test and time-kill assay test as test methods that become the standard for judging utility of antibiotics, when a new antibiotics is developed.
MIC TEST is a test method deciding minimum inhibitory concentration where bacteria cannot grow well, namely minimal usage of antibiotics for obtaining purposed antibacterial efficacy, and Time-Kill assay test is a test method deciding usage of antibiotics that can maintain purposed efficacy for certain time range. Each test was performed, in order to test whether mangosteem extracts have proliferation inhibiting efficacy against Streptocccus Mutans (Streptocccus Mutans ATCC […]) to a certain degree.
MIC test for Streptococcus mutans (Streptococcus mutans ATCC 25175) was progressed according to the American clinical test standard method, NCCLS (National Committee for Clinical Laboratory Standards). To do comparative test of antibacterial ability of mangosteen extracts against Streptococcus mutans, after preparing each analysis sample as shown in the following table 5, that is the concentration of each analysis sample was 0, 1, 2, 3, 4, 5, 6, 7, 8, 9 and 10 ul, and the concentration of used Streptococcus mutans bacteria finally became 1×10^5 at the ratio of 50% by weight, and the concentration of DMSO (dimethyl sulfoxide) used as an analysis sample solvent finally became 1% by weight, and BHI medium (Brain heart infusion: Peptic Digest of Animal tissue, Sodium Chloride, Dextrose, Pancreatic Digest of Gelation, Disodium Phosphate, Final PH7.4+-0.2; Difco Company) was added for the remaining 40% by weight, they were used for the test. […]
After adding the samples in a microtube (duplicate) and culturing at 37° C. for 24 hrs, growth inhibit ion degree was observed by measuring absorbance at 500 nm.

Compound	MIC (S. mutans ATCC 25175, 37° C. 24 hrs, absorbance 500 nm)	MIC (Streptococcus mutans, ATCC25175, S. mutans ATCC 25175, 37° C. 24 hrs, absorbance 500 nm, read-out: MIC)	MIC (Streptococcus mutans, ATCC25175, 24 h)
COc1c(O)cc2oc3cc(O)c(CC=C(C)C)c(O)c3c(=O)c2c1CC=C(C)C [Alpha-mangosteen, alpha-mangosteen]	1.0(ug/ml)	1 µg/mL (≈ 2.44 µM)	–
CC(C)=CCc1c(O)cc2oc3cc(O)c(O)c(CC=C(C)C)c3c(=O)c2c1O [Gamma-mangosteen, gamma-mangosteen]	–	–	4 µg/mL (≈ 10.1 µM)
